Among the data in US20230143604A1, “QW DOSING OF GIP RECEPTOR AGONIST PEPTIDE COMPOUNDS AND USES THEREOF” (TAKEDA PHARMACEUTICAL COMPANY LIMITED, priority 2020, published 2023) are solubility values, retold here.

Starred links: 1 amine or outer side, 2 acyl side, 3 side chain; linkers in the order of their positions; H or OH if unused. Non-standard residues stand in square brackets, D forms with d. Residues, ends and D or L forms follow the SMILES beside them. Groups on a side chain read outwards from the residue. *: point of attachment. C18 diacid = O=C(O)CCCCCCCCCCCCCCCCC(=O)*; C17 diacid = O=C(O)CCCCCCCCCCCCCCCC(=O)*; γGlu = O=C(O)[C@H](CCC(=O)[*:2])N[*:1]; NMeY = CN[C@@H](Cc1ccc(O)cc1)C(=O)O; AEEA = NCCOCCOCC(=O)O; Aib = CC(C)(N)C(=O)O

This series in a line: Solubility in phosphate buffer pH 7.4. The essentials:
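3 mg of peptide treated with 100 μL portions of 200 mM phosphate buffer pH 7.4, sonicating/vortexing up to 1 min, with further buffer added until fully dissolved. Solubility then quantified by HPLC.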

`CC[C@H](C)[C@H](NC(=O)[C@H](CO)NC(=O)[C@H](Cc1ccc(O)cc1)NC(=O)[C@H](CC(=O)O)NC(=O)[C@H](CO)NC(=O)[C@@H](NC(=O)[C@H](Cc1ccccc1)NC(=O)[C@@H](NC(=O)CNC(=O)[C@H](CCC(=O)O)NC(=O)C(C)(C)NC(=O)[C@H](Cc1ccc(O)cc1)NC)[C@@H](C)O)[C@@H](C)CC)C(=O)N[C@@H](C)C(=O)N[C@@H](CCCCNC(=O)CNC(=O)CNC(=O)CNC(=O)CNC(=O)CNC(=O)CC[C@H](NC(=O)CCCCCCCCCCCCCCCC(=O)O)C(=O)O)C(=O)N[C@@H](CC(=O)O)C(=O)N[C@@H](CCCNC(=N)N)C(=O)NC(C)(C)C(=O)N[C@@H](C)C(=O)N[C@@H](CCC(N)=O)C(=O)NC(C)(C)C(=O)N[C@@H](CC(N)=O)C(=O)N[C@@H](Cc1ccccc1)C(=O)N[C@H](C(=O)N[C@@H](CC(N)=O)C(=O)N[C@@H](Cc1c[nH]c2ccccc12)C(=O)N[C@@H](CC(C)C)C(=O)N[C@@H](CC(C)C)C(=O)N[C@@H](C)C(=O)N[C@@H](CCC(N)=O)C(=O)N[C@@H](CCCNC(=N)N)C(=O)N1CCC[C@H]1C(=O)N[C@@H](CO)C(=O)N[C@@H](CO)C(=O)NCC(=O)N[C@@H](C)C(=O)N1CCC[C@H]1C(=O)N1CCC[C@H]1C(=O)N1CCC[C@H]1C(=O)N[C@@H](CO)C(N)=O)C(C)C` [Compound 260] returned a solubility (pH 7.4, aqueous buffer, pH 7.4 Phosphate Buffer - Solubility, 200 mM Phosphate buffer pH 7.4) of less than 6 mg/mL.

For `CC[C@H](C)[C@H](NC(=O)[C@H](CCCCN)NC(=O)[C@H](CC(=O)O)NC(=O)[C@H](CC(C)C)NC(=O)[C@H](C)NC(=O)[C@@H](NC(=O)[C@H](CO)NC(=O)[C@H](Cc1ccc(O)cc1)NC(=O)[C@H](CC(=O)O)NC(=O)[C@H](CO)NC(=O)[C@@H](NC(=O)[C@H](Cc1ccccc1)NC(=O)[C@@H](NC(=O)CNC(=O)[C@H](CCC(=O)O)NC(=O)C(C)(C)NC(=O)[C@H](Cc1ccc(O)cc1)NC)[C@@H](C)O)[C@@H](C)CC)[C@@H](C)CC)C(=O)N[C@@H](C)C(=O)N[C@@H](CCC(N)=O)C(=O)NC(C)(C)C(=O)N[C@@H](CCCCNC(=O)COCCOCCNC(=O)COCCOCCNC(=O)CC[C@H](NC(=O)CC[C@H](NC(=O)CCCCCCCCCCCCCCCCC(=O)O)C(=O)O)C(=O)O)C(=O)N[C@@H](Cc1ccccc1)C(=O)N[C@H](C(=O)N[C@@H](CC(N)=O)C(=O)N[C@@H](Cc1c[nH]c2ccccc12)C(=O)N[C@@H](CC(C)C)C(=O)N[C@@H](CC(C)C)C(=O)N[C@@H](C)C(=O)N[C@@H](CCC(N)=O)C(=O)N[C@@H](CCCNC(=N)N)C(=O)NCC(=O)O)C(C)C` [Compound 175] (H-[NMeY][Aib]EGTFISDYSIALDKIAQ[Aib]K([AEEA-AEEA-γGlu-γGlu-C18 diacid])FVNWLLAQRG-OH), the solubility runs as follows: (pH 7.4) not below 15 mg/mL; (pH 7.4, aqueous buffer) not below 30 mg/mL.

Where the note is “pH 7.4, aqueous buffer”, `CC[C@H](C)[C@H](NC(=O)[C@H](CO)NC(=O)[C@H](Cc1ccc(O)cc1)NC(=O)[C@H](CC(=O)O)NC(=O)[C@H](CO)NC(=O)[C@@H](NC(=O)[C@H](Cc1ccccc1)NC(=O)[C@@H](NC(=O)CNC(=O)[C@H](CCC(=O)O)NC(=O)C(C)(C)NC(=O)[C@H](Cc1ccc(O)cc1)NC)[C@@H](C)O)[C@@H](C)CC)C(=O)N[C@@H](C)C(=O)N[C@@H](CCCCNC(=O)COCCOCCNC(=O)COCCOCCNC(=O)CC[C@H](NC(=O)CCCCCCCCCCCCCCCCC(=O)O)C(=O)O)C(=O)N[C@@H](CC(=O)O)C(=O)N[C@@H](CCCNC(=N)N)C(=O)NC(C)(C)C(=O)N[C@@H](C)C(=O)N[C@@H](CCC(N)=O)C(=O)N[C@@H](CCC(N)=O)C(=O)N[C@@H](CC(N)=O)C(=O)N[C@@H](Cc1ccccc1)C(=O)N[C@H](C(=O)N[C@@H](CC(N)=O)C(=O)N[C@@H](Cc1c[nH]c2ccccc12)C(=O)N[C@@H](CC(C)C)C(=O)N[C@@H](CC(C)C)C(=O)N[C@@H](C)C(=O)N[C@@H](CCC(N)=O)C(=O)N[C@@H](CCCNC(=N)N)C(N)=O)C(C)C` [Compound 253] (H-[NMeY][Aib]EGTFISDYSIAK([AEEA-AEEA-γGlu-C18 diacid])DR[Aib]AQQNFVNWLLAQR-NH2) gave a solubility not below 7.4 mg/mL.

On to `CC[C@H](C)[C@H](NC(=O)[C@H](CCCNC(=N)N)NC(=O)[C@H](CC(=O)O)NC(=O)[C@H](CCCCNC(=O)CNC(=O)CNC(=O)CNC(=O)CNC(=O)CNC(=O)CCCCCCCCCCCCCCCCC(=O)O)NC(=O)[C@H](C)NC(=O)[C@@H](NC(=O)[C@H](CO)NC(=O)[C@H](Cc1ccc(O)cc1)NC(=O)[C@H](CC(=O)O)NC(=O)[C@H](CO)NC(=O)[C@@H](NC(=O)[C@H](Cc1ccccc1)NC(=O)[C@@H](NC(=O)CNC(=O)[C@H](CCC(=O)O)NC(=O)C(C)(C)NC(=O)[C@H](Cc1ccc(O)cc1)NC)[C@@H](C)O)[C@@H](C)CC)[C@@H](C)CC)C(=O)N[C@@H](C)C(=O)N[C@@H](CCC(N)=O)C(=O)N[C@@H](CCCNC(=N)N)C(=O)N[C@@H](CC(N)=O)C(=O)N[C@@H](Cc1ccccc1)C(=O)N[C@H](C(=O)N[C@@H](CCC(=O)O)C(=O)N[C@@H](Cc1c[nH]c2ccccc12)C(=O)N[C@@H](CC(C)C)C(=O)N[C@@H](CC(C)C)C(=O)N[C@@H](C)C(=O)N[C@@H](CCC(N)=O)C(=O)N[C@@H](CO)C(=O)N1CCC[C@H]1C(=O)NCC(=O)O)C(C)C` [Compound 180], for which the solubility (pH 7.4) is not below 15 mg/mL.

Consider `CC[C@H](C)[C@H](NC(=O)[C@H](CO)NC(=O)[C@H](Cc1ccc(O)cc1)NC(=O)[C@H](CC(=O)O)NC(=O)[C@H](CO)NC(=O)[C@@H](NC(=O)[C@H](Cc1ccccc1)NC(=O)[C@@H](NC(=O)CNC(=O)[C@H](CCC(=O)O)NC(=O)C(C)(C)NC(=O)[C@H](Cc1ccc(O)cc1)NC)[C@@H](C)O)[C@@H](C)CC)C(=O)N[C@@H](C)C(=O)N[C@@H](CC(C)C)C(=O)N[C@@H](CC(=O)O)C(=O)N[C@@H](CCCNC(=N)N)C(=O)NC(C)(C)C(=O)N[C@@H](Cc1c[nH]cn1)C(=O)N[C@@H](CCC(N)=O)C(=O)NC(C)(C)C(=O)N[C@@H](CC(N)=O)C(=O)N[C@@H](Cc1ccccc1)C(=O)N[C@H](C(=O)N[C@@H](CC(N)=O)C(=O)N[C@@H](Cc1c[nH]c2ccccc12)C(=O)N[C@@H](CC(C)C)C(=O)N[C@@H](CC(C)C)C(=O)N[C@@H](C)C(=O)N[C@@H](CCCCNC(=O)COCCOCCNC(=O)COCCOCCNC(=O)CC[C@H](NC(=O)CC[C@H](NC(=O)CCCCCCCCCCCCCCCC(=O)O)C(=O)O)C(=O)O)C(=O)N[C@@H](CCCNC(=N)N)C(N)=O)C(C)C` [Compound 258] (H-[NMeY][Aib]EGTFISDYSIALDR[Aib]HQ[Aib]NFVNWLLAK([AEEA-AEEA-γGlu-γGlu-C17 diacid])R-NH2), for which the solubility (pH 7.4, aqueous buffer) is not below 6 mg/mL.

Usually solubility stands for how much of the substance goes into solution per volume. Read a high solubility as a readily soluble substance.
